According to ChEMBL document CHEMBL5385876, “Discovery of unglycosylated indolocarbazoles as ROCK2 isoform-selective inhibitors for the treatment of breast cancer metastasis” (Eur J Med Chem, 2023):
The source made the active and inactive calls. The calls are words filed in the database; no cut-off is given here.

Columns and labels:
MDA-MB-231 [1] = test: Downregulation of phosphorylated STAT2 protein expression in human MDA-MB-231 cells at 0.5 uM incubated for 24 hrs by Western blot analysis; assay type: functional, cell-based
[2] = Volume of distribution at steady state in ICR mouse at 15 mg/kg, iv administered as single dose and measured for 8 hrs by LC-MS/MS analysis; assay type: ADME, organism-based; conditions: in vivo, read-out: Vdss
MDA-MB-231 [3] = test: Downregulation of phosphorylated STAT1 protein expression in human MDA-MB-231 cells at 0.5 uM incubated for 24 hrs by Western blot analysis; assay type: functional, cell-based
SK-OV-3 [4] = test: Inhibition of cell invasion in human SK-OV-3 cells at 1.25 to 10 uM incubated for 48 hrs by crystal violet staining based transwell assay; assay type: functional; conditions: dose 1.25-10 µM
[5] = target: Misshapen-like kinase 1 (Homo sapiens) (UniProt Q8N4C8); test: Inhibition of human recombinant MINK1 at 125 nM
Chain of Misshapen-like kinase 1 (Homo sapiens) (Q8N4C8 whole entry, looked up): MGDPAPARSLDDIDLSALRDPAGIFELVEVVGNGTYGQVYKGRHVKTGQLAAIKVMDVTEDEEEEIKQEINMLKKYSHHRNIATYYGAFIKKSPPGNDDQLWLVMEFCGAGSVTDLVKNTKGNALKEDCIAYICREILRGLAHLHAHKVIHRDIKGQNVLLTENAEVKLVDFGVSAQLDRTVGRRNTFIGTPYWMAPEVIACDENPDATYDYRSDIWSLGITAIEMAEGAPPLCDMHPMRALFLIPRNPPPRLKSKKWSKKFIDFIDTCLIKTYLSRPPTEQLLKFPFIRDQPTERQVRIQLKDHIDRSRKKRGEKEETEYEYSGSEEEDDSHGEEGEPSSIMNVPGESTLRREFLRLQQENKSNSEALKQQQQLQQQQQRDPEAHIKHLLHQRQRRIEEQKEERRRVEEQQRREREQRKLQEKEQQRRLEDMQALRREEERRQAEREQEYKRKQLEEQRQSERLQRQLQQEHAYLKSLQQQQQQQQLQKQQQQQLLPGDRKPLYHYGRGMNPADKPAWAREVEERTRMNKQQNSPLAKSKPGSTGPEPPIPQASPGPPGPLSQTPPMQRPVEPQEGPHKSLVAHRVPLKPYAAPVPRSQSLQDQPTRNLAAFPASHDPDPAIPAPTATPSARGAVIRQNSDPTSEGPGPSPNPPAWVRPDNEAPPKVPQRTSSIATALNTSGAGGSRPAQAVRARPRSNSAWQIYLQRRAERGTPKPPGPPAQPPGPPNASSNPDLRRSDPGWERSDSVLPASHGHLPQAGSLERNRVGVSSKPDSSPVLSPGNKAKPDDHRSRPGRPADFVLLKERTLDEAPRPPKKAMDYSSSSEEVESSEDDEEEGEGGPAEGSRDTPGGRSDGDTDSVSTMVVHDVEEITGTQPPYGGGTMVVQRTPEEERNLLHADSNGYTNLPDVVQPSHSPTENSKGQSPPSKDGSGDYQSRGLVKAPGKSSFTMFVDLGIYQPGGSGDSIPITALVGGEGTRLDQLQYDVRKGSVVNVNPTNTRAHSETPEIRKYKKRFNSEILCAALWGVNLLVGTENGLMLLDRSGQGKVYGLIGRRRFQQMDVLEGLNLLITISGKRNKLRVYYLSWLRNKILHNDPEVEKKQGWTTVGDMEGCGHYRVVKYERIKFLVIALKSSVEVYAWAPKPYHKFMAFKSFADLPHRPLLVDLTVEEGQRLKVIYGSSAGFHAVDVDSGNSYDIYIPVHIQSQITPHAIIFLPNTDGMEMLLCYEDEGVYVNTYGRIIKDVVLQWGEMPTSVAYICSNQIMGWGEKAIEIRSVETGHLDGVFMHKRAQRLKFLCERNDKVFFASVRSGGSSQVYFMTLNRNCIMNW

[6] = Volume of distribution at terminal state in ICR mouse at 15 mg/kg, iv administered as single dose and measured for 8 hrs by LC-MS/MS analysis; assay type: ADME, organism-based; conditions: in vivo, read-out: Vz
[7] = MRT (0 to t) in ICR mouse at 15 mg/kg, iv administered as single dose and measured for 8 hrs by LC-MS/MS analysis; assay type: ADME, organism-based; conditions: in vivo
[8] = target: High affinity nerve growth factor receptor (Homo sapiens) (UniProt P04629); test: Inhibition of human recombinant TRKA at 125 nM
[9] = target: Rho-associated protein kinase 2 (Homo sapiens, UniProt O75116); test: Binding affinity to ROCK2 in human MDA-MB- 231 cells assessed as stabilization at 100 uM and 52 to 61 degreeC incubated for 5 mins by CETSA; assay type: cell-based
Chain of Rho-associated protein kinase 2 (O75116 whole entry, looked up, the tested form may be a part): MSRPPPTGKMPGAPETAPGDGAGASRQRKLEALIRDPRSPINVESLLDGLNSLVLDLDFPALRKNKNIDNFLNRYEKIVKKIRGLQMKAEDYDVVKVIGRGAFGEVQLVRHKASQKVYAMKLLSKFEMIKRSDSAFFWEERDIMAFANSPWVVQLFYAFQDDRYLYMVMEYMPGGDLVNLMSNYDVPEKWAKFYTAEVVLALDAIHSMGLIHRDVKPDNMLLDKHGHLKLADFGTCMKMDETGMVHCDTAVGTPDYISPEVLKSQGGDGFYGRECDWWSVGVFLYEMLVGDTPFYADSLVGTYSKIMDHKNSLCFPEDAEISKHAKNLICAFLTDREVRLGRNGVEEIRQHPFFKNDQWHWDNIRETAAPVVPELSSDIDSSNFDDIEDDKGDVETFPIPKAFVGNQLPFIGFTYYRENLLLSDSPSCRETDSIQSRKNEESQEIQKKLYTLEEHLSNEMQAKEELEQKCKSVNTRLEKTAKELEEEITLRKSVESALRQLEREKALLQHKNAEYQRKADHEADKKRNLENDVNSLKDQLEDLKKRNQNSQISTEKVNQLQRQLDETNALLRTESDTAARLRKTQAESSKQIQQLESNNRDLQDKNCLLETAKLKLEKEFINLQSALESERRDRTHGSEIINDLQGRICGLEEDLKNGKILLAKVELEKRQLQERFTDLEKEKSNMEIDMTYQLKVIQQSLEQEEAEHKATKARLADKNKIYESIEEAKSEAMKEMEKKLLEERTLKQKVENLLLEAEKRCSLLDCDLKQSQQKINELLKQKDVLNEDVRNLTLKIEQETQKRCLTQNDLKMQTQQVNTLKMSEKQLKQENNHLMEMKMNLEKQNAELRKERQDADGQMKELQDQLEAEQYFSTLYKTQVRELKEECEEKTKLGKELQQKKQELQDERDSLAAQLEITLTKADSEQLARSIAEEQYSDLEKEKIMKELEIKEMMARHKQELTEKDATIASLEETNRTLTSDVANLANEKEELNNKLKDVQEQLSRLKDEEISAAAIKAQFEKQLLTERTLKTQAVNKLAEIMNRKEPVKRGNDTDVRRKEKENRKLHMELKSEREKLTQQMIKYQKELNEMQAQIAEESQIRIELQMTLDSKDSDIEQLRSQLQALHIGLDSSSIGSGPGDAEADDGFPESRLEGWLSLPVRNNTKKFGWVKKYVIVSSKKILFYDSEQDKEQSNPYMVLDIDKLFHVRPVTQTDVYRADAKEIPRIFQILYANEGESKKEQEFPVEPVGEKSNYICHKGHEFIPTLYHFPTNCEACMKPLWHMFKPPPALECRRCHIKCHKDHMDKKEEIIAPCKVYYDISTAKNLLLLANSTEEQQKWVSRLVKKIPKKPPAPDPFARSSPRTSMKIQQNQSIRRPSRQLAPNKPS

[10] = system: Rho-associated protein kinase 2 (Homo sapiens), O75116 [E140A]; test: Binding affinity to N-terminal His10-StrepII tagged human ROCK2 E140A mutant catalytic domain (1 to 553 residues) expressed in Sf9 insect cells assessed as change in melting temperature at 50 uM by SYPRO orange dye based thermal shift assay
Chain of Rho-associated protein kinase 2 (Homo sapiens), O75116 [E140A] (O75116 whole entry E140A, the tested form may be a part): as the sequence (O75116 whole entry, looked up, the tested form may be a part) above, with E140A counted along it

[11] = Half life in ICR mouse at 15 mg/kg, iv administered as single dose and measured for 8 hrs by LC-MS/MS analysis; assay type: ADME, organism-based; conditions: in vivo
[12] = target: Mitogen-activated protein kinase kinase kinase 5 (Homo sapiens, UniProt Q99683); test: Inhibition of ASK1 (unknown origin)
Chain of Mitogen-activated protein kinase kinase kinase 5 (Q99683 whole entry): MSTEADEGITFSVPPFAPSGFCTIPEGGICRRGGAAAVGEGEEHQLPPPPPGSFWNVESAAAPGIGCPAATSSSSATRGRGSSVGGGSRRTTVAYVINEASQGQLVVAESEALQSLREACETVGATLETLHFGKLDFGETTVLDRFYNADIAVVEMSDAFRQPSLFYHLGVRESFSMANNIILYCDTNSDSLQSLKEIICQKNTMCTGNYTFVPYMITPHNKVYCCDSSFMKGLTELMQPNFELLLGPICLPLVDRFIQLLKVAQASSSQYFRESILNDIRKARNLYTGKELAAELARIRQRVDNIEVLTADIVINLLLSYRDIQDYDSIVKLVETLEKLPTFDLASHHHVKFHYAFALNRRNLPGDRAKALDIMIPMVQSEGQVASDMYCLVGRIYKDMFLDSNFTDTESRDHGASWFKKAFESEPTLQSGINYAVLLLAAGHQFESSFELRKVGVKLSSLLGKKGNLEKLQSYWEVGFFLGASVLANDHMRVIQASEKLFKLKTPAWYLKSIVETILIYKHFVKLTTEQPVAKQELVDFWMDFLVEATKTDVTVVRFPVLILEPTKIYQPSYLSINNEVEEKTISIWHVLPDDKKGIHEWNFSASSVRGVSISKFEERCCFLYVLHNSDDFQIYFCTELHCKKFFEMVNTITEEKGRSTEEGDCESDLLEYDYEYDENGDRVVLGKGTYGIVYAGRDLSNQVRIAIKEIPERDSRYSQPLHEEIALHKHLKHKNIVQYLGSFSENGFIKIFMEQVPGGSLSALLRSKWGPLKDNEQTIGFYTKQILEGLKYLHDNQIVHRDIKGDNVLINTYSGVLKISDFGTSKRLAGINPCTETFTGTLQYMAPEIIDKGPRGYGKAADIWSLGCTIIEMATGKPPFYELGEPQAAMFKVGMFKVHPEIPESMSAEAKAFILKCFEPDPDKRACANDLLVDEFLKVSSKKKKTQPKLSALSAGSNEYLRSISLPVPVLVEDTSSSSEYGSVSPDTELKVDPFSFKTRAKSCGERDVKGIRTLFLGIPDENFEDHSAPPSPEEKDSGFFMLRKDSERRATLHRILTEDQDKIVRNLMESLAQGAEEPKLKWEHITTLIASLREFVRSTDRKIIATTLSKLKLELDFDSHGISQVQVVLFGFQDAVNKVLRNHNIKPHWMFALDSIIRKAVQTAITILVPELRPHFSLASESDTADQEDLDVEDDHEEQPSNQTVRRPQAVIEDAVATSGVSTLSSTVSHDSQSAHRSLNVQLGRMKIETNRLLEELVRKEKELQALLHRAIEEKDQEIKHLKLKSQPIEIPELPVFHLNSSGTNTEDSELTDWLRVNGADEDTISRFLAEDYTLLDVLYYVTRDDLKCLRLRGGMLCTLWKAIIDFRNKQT

[13] = AUC (0 to infinity) in ICR mouse at 15 mg/kg, iv administered as single dose and measured for 8 hrs by LC-MS/MS analysis; assay type: ADME, organism-based; set-up: time 8 hrs, dose 15 mg/kg, route iv; conditions: in vivo
[14] = MRT (0 to infinity) in ICR mouse at 15 mg/kg, iv administered as single dose and measured for 8 hrs by LC-MS/MS analysis; assay type: ADME, organism-based; conditions: in vivo
SK-OV-3 [15] = test: Inhibition of cell migration in human SK-OV-3 cells at 1.25 to 10 uM incubated for 48 hrs by scratch wound healing assay; assay type: functional, cell-based; conditions: dose 1.25-10 µM
MDA-MB-231 [16] = test: Inhibition of IL-6 stimulated phosphorylated STAT3 at Y705 residue expression in human MDA-MB-231 cells at 5 uM incubated for 24 hrs by Western blot analysis; assay type: functional, cell-based
MDA-MB-231 [17] = test: Upregulation of phosphorylated STAT6 protein expression in human MDA-MB-231 cells at 0.5 uM incubated for 24 hrs by Western blot analysis; assay type: functional, cell-based
[18] = target: Signal transducer and activator of transcription 3 (Homo sapiens) (UniProt P40763); test: Inhibition of STAT3 transcriptional activity in human MDA-MB-231 cells assessed as reduction in TWIST1 mRNA level at 5 uM incubated for 24 hrs by qRT-PCR analysis; assay type: cell-based
[19] = target: Protein kinase C delta type (Homo sapiens, UniProt Q05655); test: Inhibition of PKCdelta (unknown origin)
Chain of Protein kinase C delta type (Q05655 whole entry): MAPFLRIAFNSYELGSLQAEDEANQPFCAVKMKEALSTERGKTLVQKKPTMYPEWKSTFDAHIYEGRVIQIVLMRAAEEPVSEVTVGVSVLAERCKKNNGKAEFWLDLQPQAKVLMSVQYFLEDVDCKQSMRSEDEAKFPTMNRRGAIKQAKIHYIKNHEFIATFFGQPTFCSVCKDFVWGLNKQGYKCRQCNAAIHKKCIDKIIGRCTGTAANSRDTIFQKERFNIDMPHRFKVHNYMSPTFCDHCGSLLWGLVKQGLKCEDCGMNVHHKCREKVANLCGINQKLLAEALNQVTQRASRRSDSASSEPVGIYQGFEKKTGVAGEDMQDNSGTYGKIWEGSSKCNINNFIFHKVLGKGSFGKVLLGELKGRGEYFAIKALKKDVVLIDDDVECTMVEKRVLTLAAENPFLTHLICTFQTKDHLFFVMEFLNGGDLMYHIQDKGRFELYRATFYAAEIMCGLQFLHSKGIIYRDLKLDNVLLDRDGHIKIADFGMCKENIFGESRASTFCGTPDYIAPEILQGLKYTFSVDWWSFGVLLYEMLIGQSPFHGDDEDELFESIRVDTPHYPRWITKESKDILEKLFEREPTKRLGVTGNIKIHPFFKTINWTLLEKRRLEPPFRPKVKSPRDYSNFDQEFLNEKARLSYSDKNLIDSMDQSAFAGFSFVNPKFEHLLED

Vd [2]: 0.32 L/kg | inhibition [5]: Active | Vd [6]: 4.87 L/kg | MRT last at 8 h [7]: 10.8 min | inhibition [8]: Active | Activity [9]: Active | Activity [10]: inactive | half-life [11]: 90.6 min | IC50 [12]: 944 nM | AUC(0-inf) [13]: 6250 ng·h/mL | MRT inf [14]: 10.8 min | inhibition [18]: Active | IC50 [19]: 60.7 nM
Compound: O=C1NCc2c1c1c3cc(O)ccc3[nH]c1c1[nH]c3ccccc3c21
Activity (MDA-MB-231 [1]): Active | Activity (MDA-MB-231 [3]): Active | inhibition (SK-OV-3 [4]): Active | inhibition (SK-OV-3 [15]): Active | inhibition (MDA-MB-231 [16]): Active | Activity (MDA-MB-231 [17]): Active
